The values that follow are results of earlier work, collected in publication PMC8513935.

Structures are written as SMILES.

Data set [1] is described as follows: experimental, compiled by the authors from the literature (the ESI cites the sources).
A short description of data set [2]: derived by the authors as gas->solvent minus gas->water (a hypothetical dry solvent; the ESI), not a two-phase measurement.
Data set [3] is described as follows: log P octanol/water from commercial databases, averaged (the ESI). Conditions: Octanol (wet), 25 C.

`Cc1ccccc1C`: the log K of transfer, gas to solvent in data set [1] (1,2-Dichloroethane, 25 C) is 4.49 log10 K; in data set [1] (CCl4, 25 C) it was 4.53 log10 K; in data set [1] (Chloroform, 25 C) it was 4.57 log10 K; in data set [1] (Cyclohexane, 25 C), 3.98 log10 K; in data set [1] (Hexadecane, 25 C), 3.94 log10 K; in data set [1] (Octan-1-ol, 25 C), 3.9 log10 K. The log K of transfer, gas to solvent in data set [1] (Pentan-1-ol, 25 C) is 3.8 log10 K; in data set [1] (Toluene, 25 C) it was 4.48 log10 K; in data set [1] (Water, 25 C), 0.66 log10 K. Further, the log K of transfer, water to solvent was 3.83 log10 K in data set [2] (1,2-Dichloroethane, 25 C); 3.87 log10 K in data set [2] (CCl4, 25 C); 3.91 log10 K in data set [2] (Chloroform, 25 C); 3.32 log10 K in data set [2] (Cyclohexane, 25 C); 3.28 log10 K in data set [2] (Hexadecane, 25 C); 3.24 log10 K in data set [2] (Octan-1-ol(dry), 25 C). Moreover, the log K of transfer, water to solvent in data set [2] (Pentan-1-ol, 25 C) was 3.14 log10 K; in data set [2] (Toluene, 25 C), 3.82 log10 K; in data set [3], 3.12 log10 K.

For `Cc1cccc(C)n1`, the log K of transfer, gas to solvent was 4.69 log10 K in data set [1] (Benzene, 25 C); 5.68 log10 K in data set [1] (Chloroform, 25 C); 4.04 log10 K in data set [1] (Cyclohexane, 25 C); 3.76 log10 K in data set [1] (Hexadecane, 25 C); 3.37 log10 K in data set [1] (Water, 25 C). The log K of transfer, water to solvent in data set [2] (Benzene, 25 C) was 1.32 log10 K; in data set [2] (Chloroform, 25 C), 2.31 log10 K; in data set [2] (Cyclohexane, 25 C), 0.67 log10 K; in data set [2] (Hexadecane, 25 C) it was 0.39 log10 K; in data set [3], 1.68 log10 K.

`Cc1cc(C)cc(O)c1`: the log K of transfer, gas to solvent was 5.42 log10 K in data set [1] (CCl4, 25 C); 5.86 log10 K in data set [1] (Chlorobenzene, 25 C); 4.85 log10 K in data set [1] (Hexadecane, 25 C); 4.96 log10 K in data set [1] (Hexane, 25 C); 4.6 log10 K in data set [1] (Water, 25 C). The log K of transfer, water to solvent in data set [2] (CCl4, 25 C) was 0.82 log10 K; in data set [2] (Chlorobenzene, 25 C), 1.26 log10 K; in data set [2] (Hexadecane, 25 C), 0.256 log10 K; in data set [2] (Hexane, 25 C) it was 0.362 log10 K; in data set [3], 2.35 log10 K.

Consider `CCCCl`, for which the log K of transfer, gas to solvent was 2.71 log10 K in data set [1] (1,2-Dichloroethane, 25 C); 2.32 log10 K in data set [1] (Butan-1-ol, 25 C); 2.7 log10 K in data set [1] (Butanone, 25 C); 2.71 log10 K in data set [1] (CCl4, 25 C); 2.65 log10 K in data set [1] (Chloroform, 25 C); 2.69 log10 K in data set [1] (Cyclohexanone, 25 C). The log K of transfer, gas to solvent in data set [1] (Hexadecane, 25 C) was 2.2 log10 K; in data set [1] (Hexane, 25 C), 2.47 log10 K; in data set [1] (Octan-1-ol, 25 C) it was 2.24 log10 K; in data set [1] (Water, 25 C), 0.24 log10 K. Also, the log K of transfer, water to solvent in data set [2] (1,2-Dichloroethane, 25 C) was 2.47 log10 K; in data set [2] (Butan-1-ol, 25 C), 2.08 log10 K; in data set [2] (Butanone, 25 C) it was 2.46 log10 K; in data set [2] (CCl4, 25 C), 2.47 log10 K; in data set [2] (Chloroform, 25 C) it was 2.41 log10 K; in data set [2] (Cyclohexanone, 25 C), 2.45 log10 K. For the same compound, the log K of transfer, water to solvent is 1.96 log10 K in data set [2] (Hexadecane, 25 C); 2.23 log10 K in data set [2] (Hexane, 25 C); 2 log10 K in data set [2] (Octan-1-ol(dry), 25 C); 2.04 log10 K in data set [3].
